Assay results taken from a compilation of properties of binary mixtures (doi:10.1016/j.molliq.2020.114573).

Experiment: xn = mol fraction of the nth substance listed
Conditions: 101.3 kPa

Work on CC1COC(=O)O1 (centres undefined) + CC[n+]1ccn(C)c1.O=S(=O)([N-]S(=O)(=O)C(F)(F)F)C(F)(F)F yielded a viscosity (288.15 K, x2 = 0) of 3.063 mPa·s, a viscosity (293.15 K, x2 = 0) of 2.746 mPa·s and a viscosity (298.15 K, x2 = 0) of 2.476 mPa·s. It also gave a viscosity (308.15 K, x2 = 0) of 2.049 mPa·s, a viscosity (313.15 K, x2 = 0) of 1.879 mPa·s and a viscosity (323.15 K, x2 = 0) of 1.6 mPa·s. For the same compound, the viscosity (328.15 K, x2 = 0) was 1.486 mPa·s, the viscosity (333.15 K, x2 = 0) was 1.385 mPa·s and the viscosity (343.15 K, x2 = 0) was 1.213 mPa·s. It also gave a viscosity (348.15 K, x2 = 0) of 1.14 mPa·s.

For CC1COC(=O)O1 (centres undefined) + CCCC[n+]1ccn(C)c1.O=S(=O)([N-]S(=O)(=O)C(F)(F)F)C(F)(F)F, the viscosity (288.15 K, x2 = 0) was 3.063 mPa·s, the viscosity (288.15 K, x2 = 0.1013) was 5.14 mPa·s and the viscosity (288.15 K, x2 = 0.1557) was 6.77 mPa·s. For the same compound, the viscosity (288.15 K, x2 = 0.3071) was 12.5 mPa·s, the viscosity (288.15 K, x2 = 0.4128) was 18.43 mPa·s and the viscosity (288.15 K, x2 = 0.5045) was 24.64 mPa·s. The viscosity (288.15 K, x2 = 0.6) was 32.48 mPa·s, the viscosity (288.15 K, x2 = 0.7) was 43.74 mPa·s and the viscosity (288.15 K, x2 = 0.8079) was 55.8 mPa·s. For the same compound, the viscosity (288.15 K, x2 = 0.8776) was 64.4 mPa·s, the viscosity (293.15 K, x2 = 0) was 2.746 mPa·s and the viscosity (293.15 K, x2 = 0.1013) was 4.535 mPa·s. It also gave a viscosity (293.15 K, x2 = 0.1557) of 5.9 mPa·s, a viscosity (293.15 K, x2 = 0.3071) of 10.63 mPa·s and a viscosity (293.15 K, x2 = 0.4128) of 15.39 mPa·s. For the same compound, the viscosity (293.15 K, x2 = 0.5045) was 20.32 mPa·s, the viscosity (293.15 K, x2 = 0.7) was 35.25 mPa·s and the viscosity (293.15 K, x2 = 0.8079) was 44.52 mPa·s. It also gave a viscosity (298.15 K, x2 = 0) of 2.476 mPa·s, a viscosity (298.15 K, x2 = 0.1557) of 5.19 mPa·s and a viscosity (298.15 K, x2 = 0.3071) of 9.12 mPa·s. It also gave a viscosity (298.15 K, x2 = 0.4128) of 13.04 mPa·s, a viscosity (298.15 K, x2 = 0.6) of 21.83 mPa·s and a viscosity (298.15 K, x2 = 0.8079) of 36.14 mPa·s. The viscosity (298.15 K, x2 = 0.8776) was 41.16 mPa·s, the viscosity (303.15 K, x2 = 0) was 2.246 mPa·s and the viscosity (303.15 K, x2 = 0.1013) was 3.605 mPa·s. The viscosity (303.15 K, x2 = 0.1557) was 4.596 mPa·s, the viscosity (303.15 K, x2 = 0.3071) was 7.92 mPa·s and the viscosity (303.15 K, x2 = 0.4128) was 11.15 mPa·s. The viscosity (303.15 K, x2 = 0.6) was 18.29 mPa·s, the viscosity (303.15 K, x2 = 0.7) was 24.03 mPa·s and the viscosity (308.15 K, x2 = 0) was 2.049 mPa·s. For the same compound, the viscosity (308.15 K, x2 = 0.3071) was 6.95 mPa·s, the viscosity (308.15 K, x2 = 0.6) was 15.52 mPa·s and the viscosity (308.15 K, x2 = 0.7) was 20.24 mPa·s. For the same compound, the viscosity (308.15 K, x2 = 0.8079) was 24.9 mPa·s, the viscosity (308.15 K, x2 = 0.8776) was 28.07 mPa·s and the viscosity (313.15 K, x2 = 0) was 1.879 mPa·s. For the same compound, the viscosity (313.15 K, x2 = 0.1013) was 2.945 mPa·s, the viscosity (313.15 K, x2 = 0.1557) was 3.69 mPa·s and the viscosity (313.15 K, x2 = 0.3071) was 6.14 mPa·s. The viscosity (313.15 K, x2 = 0.4128) was 8.42 mPa·s, the viscosity (313.15 K, x2 = 0.6) was 13.31 mPa·s and the viscosity (313.15 K, x2 = 0.7) was 17.63 mPa·s. It also gave a viscosity (313.15 K, x2 = 0.8079) of 21.07 mPa·s, a viscosity (318.15 K, x2 = 0) of 1.73 mPa·s and a viscosity (318.15 K, x2 = 0.1013) of 2.683 mPa·s. It also gave a viscosity (318.15 K, x2 = 0.1557) of 3.339 mPa·s, a viscosity (318.15 K, x2 = 0.3071) of 5.47 mPa·s and a viscosity (318.15 K, x2 = 0.4128) of 7.42 mPa·s. It also gave a viscosity (318.15 K, x2 = 0.5045) of 9.33 mPa·s, a viscosity (318.15 K, x2 = 0.6) of 11.54 mPa·s and a viscosity (318.15 K, x2 = 0.8079) of 18.27 mPa·s. The viscosity (318.15 K, x2 = 0.8776) was 20.13 mPa·s, the viscosity (323.15 K, x2 = 0) was 1.6 mPa·s and the viscosity (323.15 K, x2 = 0.1013) was 2.455 mPa·s. For the same compound, the viscosity (323.15 K, x2 = 0.1557) was 3.038 mPa·s, the viscosity (323.15 K, x2 = 0.3071) was 4.91 mPa·s and the viscosity (323.15 K, x2 = 0.5045) was 8.21 mPa·s. For the same compound, the viscosity (323.15 K, x2 = 0.6) was 10.09 mPa·s, the viscosity (323.15 K, x2 = 0.8079) was 16.06 mPa·s and the viscosity (323.15 K, x2 = 0.8776) was 17.66 mPa·s. For the same compound, the viscosity (328.15 K, x2 = 0) was 1.486 mPa·s, the viscosity (328.15 K, x2 = 0.1013) was 2.258 mPa·s and the viscosity (328.15 K, x2 = 0.1557) was 2.778 mPa·s. The viscosity (328.15 K, x2 = 0.3071) was 4.422 mPa·s, the viscosity (328.15 K, x2 = 0.4128) was 5.88 mPa·s and the viscosity (328.15 K, x2 = 0.5045) was 7.29 mPa·s. The viscosity (328.15 K, x2 = 0.6) was 8.9 mPa·s, the viscosity (328.15 K, x2 = 0.7) was 11.5 mPa·s and the viscosity (328.15 K, x2 = 0.8079) was 13.99 mPa·s. The viscosity (328.15 K, x2 = 0.8776) was 15.53 mPa·s, the viscosity (333.15 K, x2 = 0) was 1.385 mPa·s and the viscosity (333.15 K, x2 = 0.1013) was 2.085 mPa·s. It also gave a viscosity (333.15 K, x2 = 0.1557) of 2.552 mPa·s, a viscosity (333.15 K, x2 = 0.3071) of 4.014 mPa·s and a viscosity (333.15 K, x2 = 0.4128) of 5.3 mPa·s. For the same compound, the viscosity (333.15 K, x2 = 0.5045) was 6.52 mPa·s, the viscosity (333.15 K, x2 = 0.6) was 7.91 mPa·s and the viscosity (333.15 K, x2 = 0.7) was 10.04 mPa·s. It also gave a viscosity (333.15 K, x2 = 0.8079) of 12.18 mPa·s, a viscosity (338.15 K, x2 = 0) of 1.294 mPa·s and a viscosity (338.15 K, x2 = 0.1013) of 1.931 mPa·s. For the same compound, the viscosity (338.15 K, x2 = 0.1557) was 2.354 mPa·s, the viscosity (338.15 K, x2 = 0.4128) was 4.79 mPa·s and the viscosity (338.15 K, x2 = 0.5045) was 5.86 mPa·s. For the same compound, the viscosity (338.15 K, x2 = 0.6) was 7.07 mPa·s, the viscosity (338.15 K, x2 = 0.7) was 8.82 mPa·s and the viscosity (338.15 K, x2 = 0.8079) was 10.66 mPa·s. It also gave a viscosity (338.15 K, x2 = 0.8776) of 11.9 mPa·s, a viscosity (343.15 K, x2 = 0) of 1.213 mPa·s and a viscosity (343.15 K, x2 = 0.1013) of 1.796 mPa·s. For the same compound, the viscosity (343.15 K, x2 = 0.1557) was 2.18 mPa·s, the viscosity (343.15 K, x2 = 0.3071) was 3.353 mPa·s and the viscosity (343.15 K, x2 = 0.4128) was 4.359 mPa·s. It also gave a viscosity (343.15 K, x2 = 0.5045) of 5.3 mPa·s, a viscosity (343.15 K, x2 = 0.6) of 6.36 mPa·s and a viscosity (343.15 K, x2 = 0.7) of 7.8 mPa·s. The viscosity (343.15 K, x2 = 0.8079) was 9.39 mPa·s, the viscosity (343.15 K, x2 = 0.8776) was 10.46 mPa·s and the viscosity (348.15 K, x2 = 0.1013) was 1.676 mPa·s. The viscosity (348.15 K, x2 = 0.3071) was 3.085 mPa·s, the viscosity (348.15 K, x2 = 0.4128) was 3.984 mPa·s and the viscosity (348.15 K, x2 = 0.5045) was 4.82 mPa·s. It also gave a viscosity (348.15 K, x2 = 0.6) of 5.76 mPa·s, a viscosity (348.15 K, x2 = 0.7) of 6.96 mPa·s and a viscosity (348.15 K, x2 = 0.8079) of 8.33 mPa·s. For the same compound, the viscosity (348.15 K, x2 = 0.8776) was 9.23 mPa·s.

For CCCC[n+]1ccn(C)c1.O=S(=O)([N-]S(=O)(=O)C(F)(F)F)C(F)(F)F + CC1COC(=O)O1, the viscosity (293.15 K, x1 = 1) was 63.1 mPa·s, the viscosity (298.15 K, x1 = 1) was 50.5 mPa·s and the viscosity (303.15 K, x1 = 1) was 41.13 mPa·s. The viscosity (313.15 K, x1 = 1) was 28.4 mPa·s, the viscosity (318.15 K, x1 = 1) was 24.03 mPa·s and the viscosity (323.15 K, x1 = 1) was 20.54 mPa·s. For the same compound, the viscosity (333.15 K, x1 = 1) was 15.91 mPa·s, the viscosity (338.15 K, x1 = 1) was 14.02 mPa·s and the viscosity (343.15 K, x1 = 1) was 12.37 mPa·s. For the same compound, the viscosity (348.15 K, x1 = 1) was 10.91 mPa·s.
